Earlier results as cited in patent publication EP2749553A1, “Process for preparation of enantiomerically pure S-(+)-N, N-dimethyl-a-[2-(naphthalenyloxy)ethyl] benzenemethanamine” (Deva Holding Anonim Sirketi, priority 2012, dated 2014).

Experiments:
[1] = free base
[2] = clinical studies; (S)- versus (R)-enantiomer

in vivo solubility [1]: poor
water solubility [1]: poor
in vivo absorption (free base): low
initial plasma half life (plasma): about 1 h
initial half-life (rapid elimination): 1 to 2 h
Structure (SMILES): CN(C)[C@@H](CCOc1cccc2ccccc12)c1ccccc1 [Dapoxetine, S-(+)-N, N-dimethyl-a-[2-(naphthalenyloxy)ethyl] benzenemethanamine]
times more potent than (R)-enantiomer [2]: 3.5 times
